Assay: Photostability: xenon arc weathering of chromophore solutions, LCMS analysis
Type: physicochemical
Settings: for Ketone (%) / Minus-2HF (%) / Minus-HF (%) / Sulfone (%) / Chromophore Remaining (%): xenon arc, 82° C. bp; for Ketone (%) / Minus-2HF (%) / Minus-HF (%) / Sulfone (%): linearly interpolated to 0.5 MJ/m2 @ 340 nm; for Chromophore Remaining (%): linearly interpolated to 0.5 MJ/m2 @ 340 nm of exposure energy; for Ratio of chromophore remaining relative to S340: interpolated to 0.5 MJ/m^2 of energy exposure at 340 nm; for Photostability (in words): weathering experiments
Excerpt: Photostability (resistance to light-induced degradation) may be measured by the amount of time required for the compound, or a material comprising the compound, to degrade to a certain point under light exposure. The light exposure may be constant, or cyclic. The light transmittance or absorbance of the compound, or material comprising the compound, may be determined at both a light state and dark state prior to testing, to determine a contrast ratio. During testing, the contrast ratio may be monitored (periodically or continually), the compound or material may be determined to have failed when the contrast ratio falls outside, or below, a selected range, or when the contrast ratio decreases to a percentage of the original contrast ratio. Photostability may also be expressed with reference to a light source or with reference to a type of light.
Chromophore solutions in Rhodiasolv IRIS were prepared at 1 to 10 wt % loading. Solutions were prepared in a glovebox by charging the chromophore and Rhodiasolv IRIS to a trace-clean vial, and the solution was stirred on a hotplate at 90° C. for 2-24 hours. After cooling, the chromophore solution was injected into glass weathering cells and the fill and vent ports were sealed with a thin disc of Kalrez (FFKM Perfluorinated Elastomer) and secured with a clamp and set-screw. The weathering cells were filled and sealed inside the glove box.
Measurement of Photostability
A. Fabrication of cuvettes. Two holes of 0.8 mm diameter were drilled at opposite ends in a 75×50 mm piece of float glass using a diamond drill bit in a rotary tool. The drilled glass and a matching piece of undrilled glass were then cleaned using hot soapy water, rinsed with deionized water and acetone and then dried with compressed air. A 5 mm wide frame was cut from a sheet of 50 μm thickness EVAL EF-F using a laser engraver. The EVAL frame was placed around the perimeter of one sheet of glass and sandwiched by the second sheet of glass. The glass-EVAL-glass sandwich was secured with tape and heated under vacuum (10 mmHg) for 30 minutes at 170° C. in a vacuum bag. After cooling, a third piece of float glass was PVB laminated to the non-drilled side of the sealed glass cells using Trosifol UV Extra Protect B150 PVB (400 nm UV cut-off).
B. Xenon arc weathering protocol. Devices were exposed to simulated weathering conditions inside a Xe-3-HS xenon arc chamber, manufactured by Q-labs Inc. The samples were weathered according to the following table. The devices were exposed to these conditions continuously, with no dark or spray cycles included.
C. Analysis of weathered chromophore solutions by LCMS. The set-screws, metal clamps and Kalrez plugs were removed from the cuvette to expose the fill port. A 5 mL plastic syringe (NORM-JECT®) equipped with a tip (Precision Tips, 0.010″ RED) was inserted into one fill port and the chromophore solution was withdrawn from the cuvette. The chromophore solution was then injected into a 2 mL amber vial (part number 5182-0716, Agilent Technology) prefilled with 1.5 mL LC-MS grade acetonitrile (HiPerSolbe CHROMANORM Acetonitrile, VWR BDH Chemicals). An aliquot of the acetonitrile solution (2 μL) was injected into the LC-MS system (Agilent Infinity 1290 LC-MS system with diode array detector) through an autosampler mechanism. Species in the injected sample were separated through a reverse phase column (Zorbax SB-C18, 2.1×50 mm, 1.8 μm, operated at 40° C.), using a mixture of acetonitrile (mixed with 1% formic acid v/v ratio), methanol (HiPerSolbe CHROMANORM Methanol, VWR BDH Chemicals) and water (HiPerSolbe CHROMANORM Water, VWR BDH Chemicals) as mobile phase.

Row | SMILES | Formation of the Minus-HF degradation product (in words) | Ketone (%) (3 wt % in Rhodiasolv IRIS) | Minus-2HF (%) (3 wt % in Rhodiasolv IRIS) | Minus-HF (%) (3 wt % in Rhodiasolv IRIS) | Sulfone (%) (3 wt % in Rhodiasolv IRIS) | Chromophore Remaining (%) (3 wt % in Rhodiasolv IRIS) | Ratio of chromophore remaining relative to S340 (3 wt %) | Ketone (%) (10 wt % in Rhodiasolv IRIS) | Minus-2HF (%) (10 wt % in Rhodiasolv IRIS) | Minus-HF (%) (10 wt % in Rhodiasolv IRIS) | Sulfone (%) (10 wt % in Rhodiasolv IRIS) | Chromophore Remaining (%) (10 wt % in Rhodiasolv IRIS) | Ratio of chromophore remaining relative to S340 (10 wt %) | Photostability (in words)
1 | COc1cc2oc(-c3ccc(C(C)(C)C)cc3)c(C3=C(c4cc(-c5ccc(C(C)(C)C)s5)sc4-c4sc(C(C)(C)C)cc4C)C(F)(F)C(F)(F)C3(F)F)c2cc1OC [Chromophore S378, 2-(4-(tert-butyl)phenyl)-3-(2-(5,5″-di-tert-butyl-3-methyl-[2,2′:5′,2″-terthiophen]-3′-yl)-3,3,4,4,5,5-hexafluorocyclopent-1-en-1-yl)-5,6-dimethoxybenzofuran] | does not occur | 0.0% | 0.0% | 0.0% | 7.5% | 92.5% | 1.02 | – | – | – | – | – | – | –
2 | CCOC(=O)CCCOc1cc2oc(-c3ccc(C(C)(C)C)cc3)c(C3=C(c4cc(-c5ccc(C(C)(C)C)s5)sc4-c4sc(C(C)(C)C)cc4C)C(F)(F)C(F)(F)C3(F)F)c2cc1OCCCC(=O)OCC [Chromophore S383, diethyl 4,4′-((2-(4-(tert-butyl)phenyl)-3-(2-(5,5″-di-tert-butyl-3-methyl-[2,2′:5′,2″-terthiophen]-3′-yl)-3,3,4,4,5,5-hexafluorocyclopent-1-en-1-yl)benzofuran-5,6-diyl)bis(oxy))dibutanoate] | does not occur | – | – | – | – | – | – | 0.0% | 0.0% | 0.0% | 0.0% | 100.0% | 1.10 | –
3 | CCOC(=O)CCCOc1cc2oc(-c3ccc(C(C)(C)C)cc3)c(C3=C(c4cc(-c5sc(C(C)(C)C)cc5C)sc4-c4sc(C(C)(C)C)cc4C)C(F)(F)C(F)(F)C3(F)F)c2cc1OCCCC(=O)OCC [Chromophore S384, diethyl 4,4′-((2-(4-(tert-butyl)phenyl)-3-(2-(5,5″-di-tert-butyl-3,3″-dimethyl-[2,2′:5′,2″-terthiophen]-3′-yl)-3,3,4,4,5,5-hexafluorocyclopent-1-en-1-yl)benzofuran-5,6-diyl)bis(oxy))dibutanoate] | does not occur | – | – | – | – | – | – | 0.0% | 0.0% | 0.0% | 1.3% | 97.2% | 1.07 | –
4 | CCOC(=O)CCCOc1cc2oc(-c3ccc(C(C)(C)C)cc3)c(C3=C(c4cc(-c5cc(C(C)(C)C)cs5)sc4-c4cc(C(C)(C)C)cs4)C(F)(F)C(F)(F)C3(F)F)c2cc1OCCCC(=O)OCC [Chromophore S386, diethyl 4,4′-((2-(4-(tert-butyl)phenyl)-3-(2-(4,4″-di-tert-butyl-[2,2′:5′,2″-terthiophen]-3′-yl)-3,3,4,4,5,5-hexafluorocyclopent-1-en-1-yl)benzofuran-5,6-diyl)bis(oxy))dibutanoate] | prevents the Minus-HF product | – | – | – | – | – | – | 0.0% | 0.0% | 0.0% | 0.0% | 98.6% | 1.08 | high photostability
5 | CCOC(=O)CCCOc1cc2oc(-c3ccc(C(C)(C)C)cc3)c(C3=C(c4cc(-c5cc6c(s5)C(C)(C)CCC6(C)C)sc4-c4cc5c(s4)C(C)(C)CCC5(C)C)C(F)(F)C(F)(F)C3(F)F)c2cc1OCCCC(=O)OCC [Chromophore S387, ethyl 4-[(3-{2-[2,5-bis(4,4,7,7-tetramethyl-4,5,6,7-tetrahydro-1-benzothiophen-2-yl)thiophen-3-yl]-3,3,4,4,5,5-hexafluorocyclopent-1-en-1-yl}-2-(4-tert-butylphenyl)-6-(4-ethoxy-4-oxobutoxy)-1-benzofuran-5-yl)oxy]butanoate] | prevents the Minus-HF product | – | – | – | – | – | – | 0.0% | 0.0% | 0.0% | 0.0% | 100.0% | 1.10 | high photostability

— patent publication US20220220100A1 (SOLUTIA CANADA INC., priority 2019, published 2022)
